The values that follow are results of earlier work, collected in patent US7847120B2, “Compositions of allosteric hemoglobin modifiers and methods of making the same” (Virginia Commonwealth University Intellectual Property …, priority 2004, dated 2010).

Series [1] relates to tissue oxygenation. The conditions noted are these: in vivo.
Series [2] relates to EMT6 mouse mammary tumors. The conditions noted are these: efaproxiral plus oxygen breathing, Rockwell and Kelley 1998.
The test system of series [3] is mouse fibrosarcoma tumor. The conditions noted are these: combination of efaproxiral and radiation relative to radiation alone.

As for `Cc1cc(C)cc(NC(=O)Cc2ccc(OC(C)(C)C(=O)O)cc2)c1` [efaproxiral, 2-[4-((((3,5-dimethylphenyl)amino)carbonyl)methyl)phenoxy]-2-methyl propionic acid], in series [1], the tissue oxygenation entry is on record as “enhance tissue oxygenation in vivo”. Further, the “effect of radiation in tumors” value in series [2] (EMT6 mouse mammary tumors) is on record as “Enhancement of the effect of radiation was observed”. Besides, the “radiation effects in normal tissues” value in series [2] (normal tissues) is “absence of enhanced radiation effects”. Besides, in series [3], the tumor growth entry was “reduced”.
